The structures appear in SMILES notation. Where two headings read alike, the source gives them in different places.

The text below walks through data of patent publication US20250186432A1, “SPLEEN TYROSINE KINASE INHIBITOR, COMPOSITION, AND METHODS OF USE” (PURDUE RESEARCH FOUNDATION, priority 2022, published 2025).

Data set [1] has as its target HGFR (Homo sapiens, UniProt P08581). Put plainly: ADP-Glo kinase inhibition assay, HGFR. In kind it is biochemical. The following applies: for IC50: ADP-Glo.
Data set [2] deals with IGF1R (Homo sapiens, UniProt P08069). Kind of data set: ADP-Glo kinase inhibition assay, IGF1R.
The target in data set [3] is VEGFR (Homo sapiens, UniProt P35916). Put plainly: ADP-Glo kinase inhibition assay, VEGFR. The following applies: ADP-Glo. It is filed as biochemical.
For data set [4], the target named is FGFR3 (Homo sapiens, UniProt P22607). Put plainly: ADP-Glo kinase inhibition assay, FGFR3.
Data set [5] has as its target Syk (Homo sapiens, UniProt P43405). Kind of data set: ADP-Glo kinase inhibition assay, Syk.
The target of data set [6] is EGFR (Homo sapiens, UniProt P00533). Put plainly: ADP-Glo kinase inhibition assay, EGFR. It is filed as biochemical. To be noted: for IC50: ADP-Glo.
Data set [7] relates to Band 3 tyrosine phosphorylation. Kind of data set: Inhibition of Band 3 tyrosine phosphorylation (cellular potency). In kind it is cell-based, human.
Data set [8] is described as follows: LogP. In kind it is physicochemical. The text has this: The compound can have a CLogP value between about 2.0 and about 5.0 (e.g., between 2.0 and about 5.0, about 2.0 and 5.0, or 2.0 and 5.0). In certain embodiments, e.g., compound S1213, the compound has a CLogP value of between about 1.0 and about 2.0 (e.g., between 1.0 and about 2.0, about 1.0 and 2.0, or 1.0 and 2.0). The term “cLogP” refers to a calculated partition coefficient which in the physical sciences, is the ratio of concentrations of a compound in a mixture of the two immiscible phases at equilibrium. These coefficients are a measure of the difference in solubility of the compound in these two phases. In general, this is a measure of hydrophobicity of the compound as one phase is aqueous (traditionally water) and the other is hydrophobic (traditionally octanol). Higher values indicate greater partitioning of the compound into the hydrophobic phase and support increased hydrophobicity.

The subject of data set [9] is VEGFR. Kind of data set: ADP-Glo kinase inhibition assay, VEGFR. It is filed as biochemical. To be noted: selectivity ratio.
Data set [10] can be described thus: Absolute oral bioavailability. The following applies: in vivo, read-out: Absolute oral bioavailability F.
Setting [11] is: pTyr, read-out: Inhibition of Band 3 Tyrosine Phosphorylation EC50, pTyr.
Where [12] appears, read: Homo sapiens, read-out: Inhibition of Band 3 Tyrosine Phosphorylation EC50, pTyr.
[13] abbreviates: Homo sapiens, read-out: Inhibition of Band 3 Tyrosine Phosphorylation EC50, pTyr8.
[14] abbreviates: Homo sapiens, read-out: Inhibition of Band 3 Tyrosine Phosphorylation EC50, pTyr359.

VEGFR (Homo sapiens, UniProt P35916), sequence (P35916 whole entry): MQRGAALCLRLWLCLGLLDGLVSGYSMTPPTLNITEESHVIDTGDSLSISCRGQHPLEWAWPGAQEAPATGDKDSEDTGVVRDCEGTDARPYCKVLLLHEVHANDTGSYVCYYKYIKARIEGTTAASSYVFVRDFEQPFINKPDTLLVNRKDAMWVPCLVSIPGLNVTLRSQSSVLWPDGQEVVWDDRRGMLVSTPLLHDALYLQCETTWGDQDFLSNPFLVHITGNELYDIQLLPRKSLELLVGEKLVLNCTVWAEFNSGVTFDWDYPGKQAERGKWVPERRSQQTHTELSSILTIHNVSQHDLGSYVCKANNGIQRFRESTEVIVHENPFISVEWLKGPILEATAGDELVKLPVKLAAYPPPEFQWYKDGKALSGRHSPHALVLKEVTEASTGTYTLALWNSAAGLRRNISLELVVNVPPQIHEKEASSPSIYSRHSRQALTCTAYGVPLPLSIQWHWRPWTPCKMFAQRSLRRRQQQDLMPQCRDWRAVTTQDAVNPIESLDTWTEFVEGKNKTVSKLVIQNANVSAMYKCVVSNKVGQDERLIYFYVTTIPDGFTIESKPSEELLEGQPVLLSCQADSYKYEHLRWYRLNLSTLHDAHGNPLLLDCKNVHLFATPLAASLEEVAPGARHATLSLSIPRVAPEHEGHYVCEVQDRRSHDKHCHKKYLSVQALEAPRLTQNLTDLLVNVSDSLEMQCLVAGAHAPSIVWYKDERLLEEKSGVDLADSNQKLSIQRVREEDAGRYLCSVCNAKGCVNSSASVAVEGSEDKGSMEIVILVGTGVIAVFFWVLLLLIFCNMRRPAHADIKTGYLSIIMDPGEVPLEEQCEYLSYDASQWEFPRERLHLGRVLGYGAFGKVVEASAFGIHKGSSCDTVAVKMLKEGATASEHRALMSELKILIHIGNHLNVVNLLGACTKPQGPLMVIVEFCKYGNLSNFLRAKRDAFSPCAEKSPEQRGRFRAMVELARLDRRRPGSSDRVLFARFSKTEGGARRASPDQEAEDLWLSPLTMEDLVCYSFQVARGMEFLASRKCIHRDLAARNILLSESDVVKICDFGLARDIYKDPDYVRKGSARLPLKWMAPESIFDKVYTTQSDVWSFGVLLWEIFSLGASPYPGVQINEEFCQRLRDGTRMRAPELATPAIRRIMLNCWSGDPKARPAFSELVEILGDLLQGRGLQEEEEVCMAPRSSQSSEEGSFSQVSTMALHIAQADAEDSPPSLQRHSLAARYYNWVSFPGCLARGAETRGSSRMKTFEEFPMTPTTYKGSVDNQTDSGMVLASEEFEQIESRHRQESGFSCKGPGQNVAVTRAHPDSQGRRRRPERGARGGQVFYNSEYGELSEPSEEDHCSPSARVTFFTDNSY
IGF1R, sequence (P08069 31-1367): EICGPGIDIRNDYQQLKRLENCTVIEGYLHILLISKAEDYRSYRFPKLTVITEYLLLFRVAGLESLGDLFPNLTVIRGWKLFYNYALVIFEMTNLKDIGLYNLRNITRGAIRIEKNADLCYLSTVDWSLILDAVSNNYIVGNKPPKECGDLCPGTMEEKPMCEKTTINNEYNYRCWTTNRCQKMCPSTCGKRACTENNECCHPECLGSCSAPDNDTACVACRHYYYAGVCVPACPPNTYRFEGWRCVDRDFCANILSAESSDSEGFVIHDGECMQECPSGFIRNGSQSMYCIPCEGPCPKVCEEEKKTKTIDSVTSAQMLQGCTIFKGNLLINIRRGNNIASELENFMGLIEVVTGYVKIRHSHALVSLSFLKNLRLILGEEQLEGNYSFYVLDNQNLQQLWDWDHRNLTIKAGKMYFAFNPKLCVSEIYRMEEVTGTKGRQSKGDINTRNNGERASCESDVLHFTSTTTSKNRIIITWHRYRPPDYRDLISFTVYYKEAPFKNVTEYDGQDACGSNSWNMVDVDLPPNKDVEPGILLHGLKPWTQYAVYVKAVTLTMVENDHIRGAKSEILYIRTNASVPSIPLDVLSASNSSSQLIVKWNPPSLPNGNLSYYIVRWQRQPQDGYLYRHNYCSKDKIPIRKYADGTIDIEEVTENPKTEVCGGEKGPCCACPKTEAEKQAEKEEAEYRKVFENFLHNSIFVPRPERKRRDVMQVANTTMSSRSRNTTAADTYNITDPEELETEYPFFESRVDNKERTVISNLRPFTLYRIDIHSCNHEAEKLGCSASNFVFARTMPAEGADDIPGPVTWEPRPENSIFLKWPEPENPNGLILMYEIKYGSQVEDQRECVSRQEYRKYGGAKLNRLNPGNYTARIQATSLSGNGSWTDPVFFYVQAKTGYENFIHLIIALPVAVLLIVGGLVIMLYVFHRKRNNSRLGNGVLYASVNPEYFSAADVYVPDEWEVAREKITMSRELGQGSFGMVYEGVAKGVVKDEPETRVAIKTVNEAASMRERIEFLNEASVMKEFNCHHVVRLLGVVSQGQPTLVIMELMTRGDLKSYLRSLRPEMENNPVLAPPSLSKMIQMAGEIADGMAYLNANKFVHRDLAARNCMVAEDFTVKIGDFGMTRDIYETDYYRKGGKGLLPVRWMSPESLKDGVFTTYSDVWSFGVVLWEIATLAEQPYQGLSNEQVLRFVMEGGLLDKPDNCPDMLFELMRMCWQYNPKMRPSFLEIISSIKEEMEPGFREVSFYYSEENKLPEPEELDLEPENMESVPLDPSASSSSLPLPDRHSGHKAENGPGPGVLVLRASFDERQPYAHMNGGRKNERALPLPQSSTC
EGFR, sequence (P00533 25-1210): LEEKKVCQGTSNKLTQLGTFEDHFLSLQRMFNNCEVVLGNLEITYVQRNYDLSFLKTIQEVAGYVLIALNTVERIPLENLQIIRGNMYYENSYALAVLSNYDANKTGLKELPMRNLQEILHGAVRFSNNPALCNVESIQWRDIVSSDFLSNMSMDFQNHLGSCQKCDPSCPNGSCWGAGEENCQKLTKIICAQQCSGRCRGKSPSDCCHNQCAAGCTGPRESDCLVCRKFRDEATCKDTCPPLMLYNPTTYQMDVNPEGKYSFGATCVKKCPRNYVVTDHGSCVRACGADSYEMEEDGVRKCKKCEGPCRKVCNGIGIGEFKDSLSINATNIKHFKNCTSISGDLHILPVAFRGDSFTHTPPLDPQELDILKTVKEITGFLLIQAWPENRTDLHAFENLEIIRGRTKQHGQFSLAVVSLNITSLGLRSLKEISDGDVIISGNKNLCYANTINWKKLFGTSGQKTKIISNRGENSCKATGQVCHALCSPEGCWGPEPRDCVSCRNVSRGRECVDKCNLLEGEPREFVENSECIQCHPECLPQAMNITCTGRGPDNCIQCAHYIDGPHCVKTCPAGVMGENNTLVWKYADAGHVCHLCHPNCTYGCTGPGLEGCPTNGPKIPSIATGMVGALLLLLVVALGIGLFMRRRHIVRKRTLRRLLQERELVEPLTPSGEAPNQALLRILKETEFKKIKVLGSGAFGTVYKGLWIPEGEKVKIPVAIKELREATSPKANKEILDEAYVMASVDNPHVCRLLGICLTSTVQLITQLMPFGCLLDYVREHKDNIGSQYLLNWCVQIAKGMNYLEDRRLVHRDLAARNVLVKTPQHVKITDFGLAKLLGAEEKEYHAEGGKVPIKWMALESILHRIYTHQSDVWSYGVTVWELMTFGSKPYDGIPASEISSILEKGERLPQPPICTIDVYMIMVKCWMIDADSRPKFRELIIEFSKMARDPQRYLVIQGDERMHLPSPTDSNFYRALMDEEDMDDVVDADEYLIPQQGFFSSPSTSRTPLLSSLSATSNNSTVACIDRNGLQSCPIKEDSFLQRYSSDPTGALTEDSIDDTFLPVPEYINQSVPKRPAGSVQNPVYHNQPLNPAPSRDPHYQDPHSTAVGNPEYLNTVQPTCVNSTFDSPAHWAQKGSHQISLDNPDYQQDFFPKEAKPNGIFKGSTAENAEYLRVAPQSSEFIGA
FGFR3, sequence (P22607 23-806): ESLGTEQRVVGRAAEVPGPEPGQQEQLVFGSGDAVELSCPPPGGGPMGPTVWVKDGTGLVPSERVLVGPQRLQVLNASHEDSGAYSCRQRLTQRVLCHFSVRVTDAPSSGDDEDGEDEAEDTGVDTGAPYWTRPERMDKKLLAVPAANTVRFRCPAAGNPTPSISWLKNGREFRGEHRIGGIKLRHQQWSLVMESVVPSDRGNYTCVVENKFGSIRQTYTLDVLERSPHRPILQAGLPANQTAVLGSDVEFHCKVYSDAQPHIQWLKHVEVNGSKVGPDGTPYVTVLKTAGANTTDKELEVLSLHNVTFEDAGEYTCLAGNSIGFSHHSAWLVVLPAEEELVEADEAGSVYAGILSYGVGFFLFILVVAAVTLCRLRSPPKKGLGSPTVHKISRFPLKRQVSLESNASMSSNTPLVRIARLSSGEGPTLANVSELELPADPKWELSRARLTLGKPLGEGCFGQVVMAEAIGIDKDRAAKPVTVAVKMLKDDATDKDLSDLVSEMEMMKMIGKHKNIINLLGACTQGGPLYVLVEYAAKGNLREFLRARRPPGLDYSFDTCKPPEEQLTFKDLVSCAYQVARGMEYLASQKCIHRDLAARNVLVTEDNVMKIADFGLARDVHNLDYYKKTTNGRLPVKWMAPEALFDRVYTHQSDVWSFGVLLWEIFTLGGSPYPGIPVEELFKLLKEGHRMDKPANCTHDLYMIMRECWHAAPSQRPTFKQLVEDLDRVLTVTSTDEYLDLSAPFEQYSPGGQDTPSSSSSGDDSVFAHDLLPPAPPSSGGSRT

Consider `CCc1cc2c(cc1N1CCC(N3CCOCC3)CC1)C(C)(C)c1[nH]c3cc(C#N)ccc3c1C2=O` [Alectinib], for which the IC50 in data set [1] was found to be 1.03 µM; in [2], 1.01 µM; in [3] it was 0.335 µM; in data set [4] it was 1.81 µM; in data set [5], 37.1 µM.
Take `Cn1cc(-c2cc3c(N4CCN(c5ncc([C@@](C)(N)c6ccc(F)cc6)cn5)CC4)ncnn3c2)cn1` [Avapritinib]: the IC50 in [1] is 25 µM; in [2] it was above 100 µM; in data set [6] it was 8.73 µM; in data set [3], 2.58 µM; in [4], 1.02 µM; in data set [5] it was 0.28 µM.
In the case of `CCS(=O)(=O)N1CCN(c2ccc(Nc3ncc(C(N)=O)c(NC4CC4)n3)cc2)CC1` [Cerdulatinib], in [5] (read-out: IC50 Syk, ADP-Glo), the IC50 worked out at 0.032 µM.
For `COc1cc(Nc2ncc(F)c(Nc3ccc4c(n3)NC(=O)C(C)(C)O4)n2)cc(OC)c1OC` [Compound R406], in data set [7] (setting [11]), the EC50 came out at 5 µM.
For `COc1ccc(Nc2nc(-c3ccc4c(CN5CC(O)C5)c[nH]c4c3)cn3ccnc23)cc1OC` [Compound S970, 1-((6-(8-((3,4-dimethoxyphenyl)amino)imidazo[1,2-a]pyrazin-6-yl)-1H-indol-3-yl)methyl)azetidin-3-ol], the LogP in [8] is given as 2.29. The EC50 came out at 1.5 µM in data set [7] (setting [12]), 4.4 µM in data set [7] (setting [13]) and 10 µM in data set [7] (setting [14]). The “Ratio of IC50 SYK/Kinases: HGFR” value in data set [1] (selectivity ratio) was 220. For the same molecule, the “Ratio of IC50 SYK/Kinases: IGF1R” value in [2] (selectivity ratio) is on record as 55. In addition, the figures for the IC50 in data set [6], in data set [3] and in [5] were 8 µM, 4 µM and 0.177 µM, respectively. The “Ratio of IC50 SYK/Kinases: EGFR” value in data set [6] (selectivity ratio) is 44. Besides, in [9], the “Ratio of IC50 SYK/Kinases: VEGFR3” value was determined as 22. For the same molecule, the “Ratio of IC50 SYK/Kinases: FGF3R” value in data set [4] (selectivity ratio) stood at 55. The “Ratio of IC50 SYK/Kinases: SYK” value in data set [5] (selectivity ratio) came out at 1.
In [8], `COc1ccc(Nc2nc(-c3ccc4c(CN5CC(O)C5)cn(CO)c4c3)cn3ccnc23)cc1OC` [Compound S970D] yielded a lipophilicity (LogP) of 2.28. In addition, the results for the EC50 in data set [7] (setting [12]) and in data set [7] (setting [13]) were 0.716 µM and 0.572 µM, respectively. The IC50 is above 40 µM in [1]; above 5 µM in data set [2]; 0.65 µM in [6]; 2.1 µM in [3]; 0.08 µM in data set [5].
Take `COc1ccc(Nc2nc(-c3ccc4c(CN5CC(O)C5)c[nH]c4c3)cnc2C(N)=O)cc1OC` [Compound S1115, 3-((3,4,-methoxyphenyl)amino)-5-(3-((3-hydroxyazetidin-1-yl)methyl)-1H-indol-6-yl)pyrazine-2-carboxamide]: in data set [8], the LogP stood at 1.42. The EC50 in data set [7] (setting [12]) came out at 0.226 µM; in data set [7] (setting [13]), 0.262 µM; in data set [7] (setting [14]), 1.59 µM. In addition, in data set [10], the bioavailability is 2%. Moreover, the IC50 was above 40 µM in data set [1]; 0.9 µM in data set [2]; 0.14 µM in data set [6]; 0.075 µM in data set [3]; 0.0022 µM in data set [5].
As to `COc1ccc(Nc2nc(-c3ccc4c(CN5CC(N)C5)c[nH]c4c3)cnc2C(N)=O)cc1OC` [Compound S1213], the LogP in data set [8] is recorded as 1.04. Moreover, the EC50 in [7] (setting [12]) was 1.5 µM. The bioavailability in data set [10] worked out at 2%. The IC50 was above 20 µM in [1]; above 20 µM in [2]; 25 µM in data set [6]; above 2 µM in data set [3]; above 3 µM in data set [4]; 0.025 µM in data set [5].
In turn, `NC(=O)c1ncc(-c2ccc3c(CN4CC(N)C4)c[nH]c3c2)nc1Nc1cccc(-n2nccn2)c1` [Compound S1214] had an IC50 in data set [5] of 0.53 µM.
`COc1ccc(Nc2nc(-c3ccc4c(CN5CC(C(=O)O)C5)c[nH]c4c3)cnc2C(N)=O)cc1OC` [Compound S1219] came in with a LogP in [8] of 1.54. Moreover, the bioavailability in data set [10] came to 1.1%. In data set [5], the IC50 is 0.05 µM.
For the molecule `COc1ccc(Nc2nc(-c3ccc4c(CCCO)cn(C)c4c3)cnc2C(N)=O)cc1OC` [Compound S2053], in [8], the LogP came out at 2.63. For the same molecule, the bioavailability in data set [10] was determined as 8%. The IC50 was above 10 µM in data set [2]; 4.3 µM in data set [6]; above 10 µM in data set [3]; above 5 µM in data set [4]; 0.147 µM in [5].
With `COc1ccc(Nc2nc(-c3ccc4c(CCCN)cn(C)c4c3)cnc2C(N)=O)cc1OC` [Compound S2054], it took 0.68 µM to reach half-maximal inhibition in data set [5] (IC50).
As to `c1cn2cc(-c3ccc4cn[nH]c4c3)nc(Nc3ccc(N4CCOCC4)cc3)c2n1` [Entospletinib], in [7] (setting [11]), the EC50 turned out to be 3 µM. Further, the IC50 is 0.813 µM in data set [2], 0.244 µM in data set [3] and 9.9 µM in data set [4].
For `CN1CCN(c2ccc(C(=O)Nc3n[nH]c4ccc(Cc5cc(F)cc(F)c5)cc34)c(NC3CCOCC3)c2)CC1` [Entrectinib], the results for the IC50 in data set [3] and in data set [4] were 0.441 µM and 0.246 µM, respectively.
Consider `COc1cc(Nc2ncc(F)c(Nc3ccc4c(n3)N(COP(=O)(O)O)C(=O)C(C)(C)O4)n2)cc(OC)c1OC` [Fostamtinib], for which the IC50 in data set [1] came to 1.57 µM; in data set [2], 0.638 µM; in [6], 0.342 µM; in data set [3], 0.0187 µM; in data set [4], 0.0914 µM.
As for `N#CCC1CCN(c2nc(Nc3ccc(N4CCC(O)CC4)cc3)c3c(=O)[nH]ncc3n2)CC1` [Gusacitinib], in [5], the IC50 lay within 0.005 to 0.046 µM.
Take `Nc1cncc(-c2cn3ccnc3c(Nc3ccc(N4CCN(C5COC5)CC4)cc3)n2)n1` [Lanraplenib]: the EC50 in [7] (setting [12]) turned out to be 3 µM. The IC50 in [1] was above 100 µM; in data set [2], 2.43 µM; in [6], 4.27 µM; in [3] it was 0.778 µM; in data set [4], 69.4 µM.
On to `O=C(Nc1cnn2ccc(N3CCC[C@@H]3c3cc(F)ccc3F)nc12)N1CC[C@H](O)C1` [Larotrectinib], for which the IC50 in data set [1] is above 100 µM; in data set [2] it was above 100 µM; in data set [6], 6.37 µM; in data set [3] it was 19.6 µM; in data set [4], 1.98 µM; in data set [5], 23.6 µM.
In the case of `NC(=O)c1cnc(N[C@@H]2CCCC[C@@H]2N)nc1Nc1cccc(-n2nccn2)c1` [PRT062067], the EC50 in data set [7] (setting [11]) was 0.3 µM.
For the molecule `Oc1cc(O)cc(/C=C/c2ccc(O)c(O)c2)c1` [Piceatannal], the IC50 in data set [1] is 35 µM; in data set [2] (read-out: IC50 IGF1R, ADP-Glo) it was 21.5 µM; in [6] it was 17.6 µM; in [3] it was 5 µM; in data set [4] (read-out: IC50 FGFR3, ADP-Glo), 24.7 µM.
With `CCn1c(=O)c(-c2cc(NC(=O)Nc3ccccc3)c(F)cc2Br)cc2cnc(NC)cc21` [Ripretinib], the 50% inhibitory concentration (IC50) is 3.02 µM in data set [1]; above 100 µM in data set [2]; 9.93 µM in [6]; 0.00024 µM in [3]; 0.0844 µM in data set [4]; 13.2 µM in data set [5].
As to `Cc1nn(-c2ccnc(Nc3ccc(-c4csc5c(=O)cc(N6CCOCC6)oc45)cc3)n2)cc1CN1CCC1` [SRX3207], the IC50 in data set [5] (read-out: IC50 Syk, ADP-Glo) turned out to be 0.0107 µM.
With `NCCNc1ncc(C(N)=O)c(Nc2cccc(C(F)(F)F)c2)n1` [Syk II], the IC50 worked out at 69.4 µM in data set [1]; 13.5 µM in data set [2] (read-out: IC50 IGF1R, ADP-Glo); 27 µM in data set [6]; 4.21 µM in data set [3]; 36.9 µM in data set [4] (read-out: IC50 FGFR3, ADP-Glo); 0.0703 µM in data set [5] (read-out: IC50 Syk, ADP-Glo).
Take `COc1ccc(-c2cc3nccn3c(Nc3ncccc3C(N)=O)n2)cc1OC` [Syk IV]: the IC50 in data set [3] came out at 0.0912 µM.
Consider `NC(=O)c1nnc(N[C@@H]2CCCC[C@@H]2N)nc1Nc1cccc2cc[nH]c12` [Syk-IN-1], for which, in data set [5] (read-out: IC50 Syk, ADP-Glo), the IC50 was 0.031 µM.
Still for that read-out and setting: to `Cc1cc(Nc2nccc(C)n2)cc(-c2cnc([C@@]3(O)CC[C@H](C(=O)O)C(C)(C)C3)s2)c1` [Syk-IN-3] belongs 0.001 µM.
Regarding `Cn1cc(-c2nc(N[C@@H]3CCCC[C@@H]3N)c(F)c3c2C(=O)NC3)cn1` [TAK-659], the IC50 in data set [1] was 3.16 µM; in data set [6] it was 27.6 µM; in [3] it was 0.15 µM; in [4] (read-out: IC50 FGFR3, ADP-Glo), 0.019 µM.
Take `Cc1cc(Nc2nc(N[C@@H]3CCOC[C@@H]3N)nnc2C(N)=O)cc2cn(C(C)(C)C)nc12` [TAS05567]: the IC50 in [5] (read-out: IC50 Syk, ADP-Glo) came to 0.00037 µM.
In the case of `Cc1cc(Nc2ncnc3ccc(NC4=NC(C)(C)CO4)cc23)ccc1Oc1ccn2ncnc2c1` [Tucatinib], the IC50 in data set [1] was 11.1 µM; in data set [2], above 100 µM; in [6], 0.0388 µM; in data set [3] it was 1.96 µM; in data set [4] it was 66.5 µM; in [5] it was 4.93 µM.
